Read-outs that look alike come from different tables or passages of the source.
Columns and labels:
Type in all cases: cell-based
[1] = system: human lung cancer cells A549; test: MTT growth inhibition, A549 cells; settings: 72 h after treatment, read-out: Drug concentration (IC50) at which 50% cancer cells survived
Excerpt: Cell lines and cell culture: human lung cancer cells A549 and H460, human breast cancer cells MCF-7 and MDA-MB-231, human gastric cancer cells BGC-823, human prostate cancer cells PC-3, human chronic leukemia cells K562, human lymphoma cells U937, human liver cancer cells SMMC7721 and HepG2, human colon cancer cells HT29, human pancreatic cancer cells PANC-1 and BxPC3, human cervical cancer Hela cell lines, human brain tumor cells Daoy, human neuroma cells D54 and human oral epidermoid cancer cells KBV200 line with strong drug resistance, mouse melanoma cells B16, and highly metastatic Lewis lung cancer cell lines were purchased from American Type Culture Collection of the U.S. These cells were cultured with DMEM and RPMI-1640 culture solutions separately.
The procedure was as follows:
(1) 0.25% trypsin was used to digest cancer cells in a logarithmic growth phase to prepare a single-cell suspension, the concentration of cells was adjusted to 5×10^4/mL, and the adjusted suspension was inoculated into a 96-well culture plate with 100 μl per well;
(2) The culture plate was transferred into a 37° C. incubator with a saturated humidity and 5% of CO2 and cultured for 24 h; the compounds and the intermediates thereof obtained in embodiments 1-7 and the compound as represented by formula (IIIa) or the positive control anti-cancer drug with the concentration of 1-1000 μM/L were added to enable the final concentration to be 0.1-1500 μM/L. Control wells (only added with 200 μl of cell suspension) and drug-free blank control wells (containing the solvent of 0.01% DMSO) were set, each group included 8 wells, and the plate was placed into the 37° C. incubator with saturated humidity and 5% of CO2 for culturing;
(3) The 96-well plate was taken out at 48 h and 72 h after dosing, the original culture medium was carefully removed by suction, 100 μl of serum-free DMEM culture medium and 10 μl of MTT (5 mg/mL) solution were added in each well. The plate was continuously cultured for another 4 h and then the culture was terminated;
(4) The supernatant in the wells was carefully removed by suction, each well was added with 150 μl of DMSO and shaked at room temperature for 10-15 min to fully dissolve crystals.
(5) Colorimetric analysis: the wavelength was selected as 570 nm, the light absorbance (A value) of each well was determined on the microplate reader and the results were recorded; the experiment was repeated for three times;
(6) the experimental results were calculated according to the following formula: relative survival rate=(A value of each experimental group/A value of cell control group)×100%
Calculation of median-effect concentration (IC50, namely the drug concentration at which the inhibition rate is 50%, also known as half inhibitory concentration):
IC50 of the detected component was calculated by using a regression equation.

[2] = system: Bcl-2/Bax; test: Western Blotting, Bcl-2/Bax level; settings: human liver cancer cells, Lewis lung cancer cells and other cancer cell lines and tumor tissues, read-out: Effective concentration (IC50) for inhibition of Bcl-2/Bax
Excerpt: (§1) Antibodies: primary antibodies of VEGFR, EGFR, c-Met, K-Ras, H-Ras, Akt, NF-κB, Cyclin D1, ER-alpha, Dvl-1, Dvl-2, Dvl-3, MMP-9, MMP2, β-catenin, Bcl-2, Bax, p53, p21, E-cadherin and Caspase3 protein, purchased from American Cell Signaling Technology Company and Santa Cruz Technology Company; and H3 acetylation, H4 acetylation and HDAC (HDAC3, HDAC4 and the like) Antibody Sample Kits, purchased from Cell Signaling Technology Company of the U.S.
(§2) (3) polyacrylamide gel electrophoresis (SDS-PAGE): an equal amount of protein lysate sample was used to separate protein, film transfer, and blocking, treated with appropriate primary antibodies and secondary antibodies in sequence, and the film was washed, then the color was developed with ECL kit, and a blot protein band was detected by exposure of an X-ray film; and a Gel-Pro Analyzer was used for quantitative analysis of gray degree, optical density value of the control group and the drug treatment group in various concentration were respectively compared with that of internal reference, the obtained ratios were respectively compared with the control group, and the protein expression level was semi-quantified.

[3] = system: nucleoprotein factor NF-κB (p65)-DNA binding activity; test: NF-κB (p65)-DNA binding activity (EMSA)
Excerpt: The in-vitro experiment of the inhibitory effect against the NF-κB(p65)-DNA binding activity was applied with the chemiluminescent EMSA kit of Pierce Biotechnology Company of the U.S., the experimental method was strictly operated according to the description of the kit and the specific procedure were as follows:
(1) Preparation of EMSA gel
The cells treated by the drugs were extracted by the nucleoprotein extract solution (provided by Beyotime Biotechnology of Institute) to obtain the nucleoprotein extracts, and 10 μg/pipe of the nucleoprotein extracts were respectively used for sample reaction and electrophoresis detection and analysis shown in the following table.
(2) Pre-electrophoresis: the gel was fixed in an electrophoresis tank, which was filled with a 0.5×TBE electrophoresis buffer solution, and electrophoresed under 10V/cm for 90 min. The probe binding reaction was as follows:
The components were added in sequence into the EP pipe according to the above table, uniformly mixed and stood at room temperature for 15 min to eliminate possible non-specific binding of probe and protein. 1 μl of biotin-labeled probe NF-κB was respectively added and stood at room temperature for 20 min.
(4) Film transfer: the process of transferring the nucleoprotein factors and the binding probe on the EMSA gel to the nylon film was electrically transferred under 380 mA in ice bath for 40 min.
(5) Ultraviolet cross-linking: the nylon film was placed under a 254 nm ultraviolet lamp and irradiated for 15 min.
(6) Detection of the biotin-labeled probe by chemiluminescence: the cross-linked nylon film was blocked with the blocking solution, a treated film was subjected to X-ray exposure, developing, and fixation according to the requirements of the kit, and the results were analyzed.

[4] = system: c-Met; test: Western Blotting, c-Met level; settings: human liver cancer cells, Lewis lung cancer cells and other cancer cell lines and tumor tissues, read-out: Effective concentration (IC50) for inhibition of c-Met
Excerpt: as §1, §2

[5] = A549 cells, EMSA, nuclear protein extracts, 48 h, read-out: Effective concentration for 50% inhibition of binding of nucleoprotein factor NF-kB (p65) and DNA
[6] = MCF7 cells, EMSA, nuclear protein extracts, 48 h, read-out: Effective concentration for 50% inhibition of binding of nucleoprotein factor NF-kB (p65) and DNA
[7] = MDA-MB231 cells, EMSA, nuclear protein extracts, 48 h, read-out: Effective concentration for 50% inhibition of binding of nucleoprotein factor NF-kB (p65) and DNA
[8] = SMMC7721 cells, EMSA, nuclear protein extracts, 48 h, read-out: Effective concentration for 50% inhibition of binding of nucleoprotein factor NF-kB (p65) and DNA
[9] = human liver cancer cells, Lewis lung cancer cells and other cancer cell lines and tumor tissues, read-out: Effective concentration (IC50) for inhibition of NF-κB-DNA binding activity
[10] = Hela cells, EMSA, nuclear protein extracts, 48 h, read-out: Effective concentration for 50% inhibition of binding of nucleoprotein factor NF-kB (p65) and DNA
[11] = PANC-1 cells, EMSA, nuclear protein extracts, 48 h, read-out: Effective concentration for 50% inhibition of binding of nucleoprotein factor NF-kB (p65) and DNA

| Compound | IC50 [1] [µM] | IC50 [2] [µM] | IC50 [3, 5] [µM] | IC50 [3, 6] [µM] | IC50 [3, 7] [µM] | IC50 [3, 8] [µM] | IC50 [3, 9] [µM] | IC50 [4] [µM] | IC50 [3, 10] [µM] | IC50 [3, 11] [µM] | IC50 ([3]; Lewis lung cancer cells, EMSA, nuclear protein extracts, 48 h, read-out: Effective concentration for 50% inhibition of binding of nucleoprotein factor NF-kB (p65) and DNA) [µM] |
| --- | --- | --- | --- | --- | --- | --- | --- | --- | --- | --- | --- |
| CCNC(=O)CC[C@H](N)C(=O)OC [Compound IIa, theanine methyl ester] | 650 ± 30 |  |  |  |  |  |  |  |  |  |  |
| CCNC(=O)CCC(NC(=O)c1cc2cc([N+](=O)[O-])ccc2oc1=O)C(=O)OCC (stereo in doubt) [Compound If, (R)-2-(6-nitro-2-oxo-2H-benzopyran-3-carboxamido)-5-ethylamino-5-oxo-pentanoic acid ethyl ester] | 122 | < 90 | < 100 | < 100 | < 100 | < 100 | < 100 | < 141 |  |  |  |
| CCNC(=O)CC[C@@H](NC(=O)c1cc2cc(Br)cc(Br)c2oc1=O)C(=O)OCC [Compound Ih, (R)-2-(6,8-dibromo-2-oxo-2H-benzopyran-3-carboxamido)-5-ethylamino-5-oxo-pentanoic ethyl ester] | 56 | < 70 | < 70 | < 70 | < 70 | < 70 | < 125 | < 500 | < 70 | < 70 |  |
| CCNC(=O)CCC(NC(=O)c1cc2ccccc2oc1=O)C(=O)OC (centres unmarked) [Compound Ia, methyl 5-ethylamino-5-oxo-2-(2-oxo-2H-benzopyran-3-carboxamido)pentanoate] | 300 ± 60 | < 125 |  |  |  | < 125 | < 135 | < 160 |  |  | < 135 |
| CCNC(=O)CC[C@@H](NC(=O)c1cc2cc(Cl)ccc2oc1=O)C(=O)OCC [Compound Ic, (R)-2-(6-CI-2-oxo-2H-benzopyran-3-carboxamido)-5-ethylamino-5-oxo-pentanoic acid ethyl ester] | 128 ± 60 | < 100 | < 125 | < 125 | < 125 | < 125 | < 125 |  |  |  |  |
| CCNC(=O)CCC(NC(=O)c1cc2ccccc2oc1=O)C(=O)OCC (centres unmarked) [Compound Ib, ethyl 5-ethylamino-5-oxo-2-(2-oxo-2H-benzopyran-3-carboxamido)pentanoate] | 125 ± 50 | < 120 | < 135 |  |  | < 120 | < 130 | < 155 |  |  |  |
| CCNC(=O)CCC(NC(=O)c1cc2cc(F)ccc2oc1=O)C(=O)OCC (stereo in doubt) [Compound Ie, (R)-2-(6-F-2-oxo-2H-benzopyran-3-carboxamido)-5-ethylamino-5-oxo-pentanoic acid ethyl ester] | 141 | < 180 | < 120 | < 100 | < 110 | < 121 | < 100 | < 145 |  |  |  |
| CCNC(=O)CC[C@H](N)C(=O)OCC [Compound IIb, theanine ethyl ester] | 500 ± 30 |  |  |  |  |  |  |  |  |  |  |
| CCNC(=O)CC[C@@H](NC(=O)c1cc2cc(Cl)cc(Cl)c2oc1=O)C(=O)OCC [Compound Ig, (R)-2-(6,8-dichloro-2-oxo-2H-benzopyran-3-carboxamido)-5-ethylamino-5-oxo-pentanoic ethyl ester] | 45 | < 70 | < 70 | < 70 | < 70 | < 70 | < 125 | < 150 | < 70 | < 70 |  |
| CCNC(=O)CC[C@@H](NC(=O)c1cc2cc(Br)ccc2oc1=O)C(=O)OCC [Compound Id, (R)-2-(6-Br-2-oxo-2H-benzopyran-3-carboxamido)-5-ethylamino-5-oxo-pentanoic acid ethyl ester] | 139 ± 50 | < 100 | < 110 | < 100 | < 100 | < 80 | < 120 | < 150 |  |  |  |

Reference: patent US9518038B2, “Condensation product of theanine derivative and carboxylic acid coumarin derivative, its intermediate, preparation method and use thereof” (SHANDONG YINGDONG YINGHAO BIOTECHNOLOGY, INC., priority 2012, dated 2016)
